Results as given in patent publication US20260009065A1, “COMPOSITIONS FOR EXPOSING FILM-FORMING MICROBES AND METHODS FOR USE OF THE COMPOSITIONS” (Guild Associates Inc., priority 2022, published 2026).

How the values were obtained:
[1] = tested on: S. proteamaculans; experiment: Treatment Toxicity (ATP luminescence of cell free supernatant, BacTiterGlo), biofilm; format: cell-based, Serratia proteamaculans; details: for Treatment Toxicity % Ctr: Biofilm Lifestyle
Description: These enzyme combinations were tested for bacterial cell release from enzyme-treated biofilms. Post-enzyme exposure sample overlying solutions were collected and centrifuged to collect bacterial cells released by the enzyme treatment. The supernatants were removed, and the cell pellet resuspended in PBS and ATP luminescence was determined and compared to non-enzyme treated controls. Preferred enzyme pairs were expected to release more cells than untreated controls. Additionally, because maintaining extracted microbe viability was important, the ATP luminescence of the post-centrifugation cell free supernatants were also determined and compared to untreated controls. ATP is normally sequestered inside of cells so the presence of substantially more ATP in the cell free supernatant of enzyme treated biofilms indicates the enzyme treatment may have had toxic effects on the treated bacteria.
(§1) Treatment Toxicity: To measure cell toxicity the ATP luminescence of the post-centrifugation cell free supernatants were also determined using the BacTiterGlo Microbial Cell Viability Assay (Promega) and compared to untreated controls to give a percent control value shown. Values over 100% are viewed negatively as potential toxic effects of an enzyme treatment.
(§2) With both growth lifestyles a clear dose response curve is evident.

[2] = tested on: S. proteamaculans; experiment: Treatment Toxicity Assay (ATP luminescence), planktonic lifestyle; format: cell-based, Serratia proteamaculans
Description: as §1, §2

[3] = tested on: S. proteamaculans; experiment: Sanitizing agent treatment, single species biofilm controls in multi-species biofilm testing; format: cell-based, Serratia proteamaculans; details: 100 ug/ml BZAC
Description: Multi-species biofilms were screened by treatment with a sanitizing agent to identify species combinations that show heightened resistance. The multi-species biofilm with the most resistance to the sanitizer was used to screen three (3) enzyme combinations for anti-biofilm and bacterial release testing of the six (6) top performing two (2) enzyme combinations tested earlier. Non-nuclease enzymes were tested at two (2) different concentrations. Each three-enzyme combination was also compared to each of the two-enzyme combination core pair to try to identify synergy of the three-enzyme combination over the two-enzyme combination.
as §2

[4] = tested on: A. JohnsonII; experiment: Crystal Violet assay, two-enzyme treatment of mono-species biofilm; format: cell-based, Acinetobacter johnsonii; details: enzyme combined w/nuclease; Crystal Violet assay vs untreated control
Description: (§3) Applicant's initial testing was carried out with combinations of two (2) enzymes rather than a single enzyme with a nuclease present in all enzyme combinations. DNase I, a specific commonly utilized DNA nuclease, was selected as a universal enzyme. Both DNase I and other DNA nucleases were compared and formulated to have equivalent activity and then used interchangeably in the research. Nuclease was tested against all seven (7) species at three (3) concentrations and then the most overall effective concentration was used in two (2) enzyme testing. Initial two (2) enzyme testing utilized traditional mono-species biofilms of the 7 species in Table 1. The nuclease was also always tested alone in all experiments allowing some determination of its contribution to the resulting antibiofilm activity. Non-nuclease enzymes were tested at 3 concentrations while the nuclease concentration was held constant. Anti-biofilm activity was measured using the Crystal Violet assay, an easy and ubiquitous assay used for measuring changes in biofilm magnitude in the biofilm research industry.
(§4) The results of the initial two enzyme combination testing using the Crystal Violet assay is given in Table 3 and are given as a percent of the untreated control Crystal Violet signal.

[5] = tested on: L. plantarum; experiment: as above; format: cell-based, Lactobacillus plantarum; details: enzyme combined w/nuclease; Crystal Violet assay vs untreated control
Description: as §3, §4

[6] = tested on: 7-species; experiment: Crystal Violet assay, average over the 7 mono-species biofilms; format: cell-based; details: enzyme combined w/nuclease; average over species tested
Description: as §3, §4

[7] = tested on: L. monocytogenes; experiment: Crystal Violet assay, two-enzyme treatment of mono-species biofilm; format: cell-based, Listeria monocytogenes; details: enzyme combined w/nuclease; Crystal Violet assay vs untreated control
Description: as §3, §4

[8] = tested on: S. proteamaculans biofilms; experiment: Crystal Violet assay, enzyme treatment of single species biofilm; format: cell-based, Serratia proteamaculans; details: enzyme combined w/nuclease; Crystal Violet assay vs untreated control
Description: as §3
Therefore, three-enzyme combinations were also tested against single species biofilms of this species.
as §4

[9] = tested on: S. enterica; experiment: Crystal Violet assay, two-enzyme treatment of mono-species biofilm; format: cell-based, Salmonella enterica; details: enzyme combined w/nuclease; Crystal Violet assay vs untreated control
Description: as §3, §4

[10] = tested on: E. coli; experiment: as above; format: cell-based, Escherechia coli O157:H7; details: enzyme combined w/nuclease; Crystal Violet assay vs untreated control
Description: as §3, §4

Substance	Treatment Toxicity % Ctr ([1]; 1 μg/ml BZAC) [% Ctr]	Treatment Toxicity % Ctr ([1]; 10 μg/ml BZAC) [% Ctr]	Treatment Toxicity % Ctr ([1]; 100 μg/ml BZAC) [% Ctr]	cell-free ATP luminescence relative to untreated control biofilms ([1]; functionally active concentrations, a representative species)	Treatment Toxicity % Ctr ([2]; 1 μg/ml BZAC) [% Ctr]	Treatment Toxicity % Ctr ([2]; 10 μg/ml BZAC) [% Ctr]	Treatment Toxicity % Ctr ([2]; 100 μg/ml BZAC) [% Ctr]	biofilm reduction by sanitizer treatment [3]	Biofilm Reduction Due to Enzyme Cocktail Treatment, A. JohnsonII [4] [%^]	Biofilm Reduction Due to Enzyme Cocktail Treatment, L. plantarum [5] [%]	Biofilm Reduction Due to Enzyme Cocktail Treatment, 7-species average [6] [%]	Biofilm Reduction Due to Enzyme Cocktail Treatment, L. monocytogenes [7] [%]	Biofilm Reduction Due to Enzyme Cocktail Treatment, S. proteamaculens [8] [%]	Biofilm Reduction Due to Enzyme Cocktail Treatment, S. enterica [9] [%]	Biofilm Reduction Due to Enzyme Cocktail Treatment, E. coli [10] [%]
Benzalkonium chloride [BZAC]	1250.5	150.8	793.3	over twelve-fold higher	859.3	284.9	724.9	consistently show biofilm reduction							
Cellulase									22.4	0	5	0	0	10	0
